Results as given in patent US20210338647A1, “Combination of Acetylcholinesterase Inhibitor and 5-HT4 Receptor Agonist As Neuroprotective Agent In the Treatment of Neurodegenerative Diseases” (UNIVERSITE DE CAEN NORMANDIE, priority 2018, published 2021).
Marks after values point to notes of the source that are not given here.

Key:
[1] = test system: rat primary hippocampal neurons injured with Aβ 1-42; assay: Survival of MAP-2 neurons in primary culture of hippocampal neurons injured with Aβ 1-42; type: cell-based; details: for Survival: Aβ1-42 20 μM/2.5 μM, percentage of control, Example 3
Experimental: (§1) Rat hippocampal neurons were cultured as described by Callizot et al. (2013) J. Neurosci. Res. 91706-716. Pregnant female rats of 17 days gestation (Rats Wistar; Janvier Labs France) were killed using a deep anesthesia with CO2 chamber followed by a cervical dislocation. Then, fetuses were removed from the uterus and immediately placed in ice-cold L15 Leibovitz medium with a 2% penicillin (10,000 U/ml) and streptomycin (10 mg/ml) solution (PS) and 1% bovine serum albumin (BSA). Hippocampal neurons were treated for 20 min at 37° C. with a trypsin-EDTA solution at a final concentration of 0.05% trypsin and 0.02% EDTA. The dissociation was stopped by adding Dulbecco's modified Eagle's medium (DMEM) with 4.5 g/l of glucose, containing DNAse I grade 11 (final concentration 0.5 mg/ml) and 10% fetal calf serum (FCS). Cells were mechanically dissociated by three forced passages through the tip of a 10-ml pipette and then centrifuged at 515×g for 10 min at 4° C. The supernatant was discarded, and the pellet was resuspended in a defined culture medium consisting of Neurobasal medium with a 2% solution of B27 supplement, 2 mmol/l of L-glutamine, 2% of PS solution, and 10 ng/ml of brain-derived neurotrophic factor (BDNF). Viable cells were counted in a Neubauer cytometer, using the trypan blue exclusion test. […] The medium was changed every 2 days.
The hippocampal neurons were exposed with Aβ solutions (see below) after 17 days of culture. The Aβ1-42 preparation was done following the procedure described by Callizot et al. (2013) J. Neurosci. Res. 91706-716. Briefly, Aβ1-42 peptide was dissolved in the defined culture medium mentioned above, at an initial concentration of 40 μM. This solution was gently agitated for 3 days at 37° C. in the dark and immediately used after being properly diluted in culture medium to the concentrations used (20 μM (plate 1) or 2.5 μM (plate 2) corresponding to 2 μM or 0.25 μM of oligomers (AβO) respectively). […]
The compound was preincubated one hour before […] application. The following conditions were assessed:
(§2) After permeabilization with 0.1% of saponin, cells were incubated for 2 h with:
a) chicken polyclonal antibody anti microtubule-associated-protein 2 (MAP-2), diluted at 1/1000 in PBS containing 1% fetal calf serum and 0.1% of saponin (this antibody allows the specific staining of neuronal cell bodies and neurites; and allow the study of neuronal cell death and neurite network).
(§3) For each condition, 30 pictures (representative of the whole well area) per well were taken using ImageXpress (Molecular Devices) at 20× magnification. All images were taken with the same acquisition parameters. Analyses were performed automatically by using Custom Module Editor (Molecular Devices).
Total number of neurons (neuron survival, number of MAP-2 positive neurons)
(§4) Rat hippocampal neurons were cultured as described by Callizot et al. (2013) J. Neurosci. Res. 91:706-716. Briefly, pregnant female rats of 17 days gestation (Rats Wistar; Janvier Labs France) were killed using a deep anesthesia with CO2 chamber and a cervical dislocation. Then, fetuses were removed from the uterus and immediately placed in ice-cold L15 Leibovitz medium with a 2% penicillin (10,000 U/ml) and streptomycin (10 mg/ml) solution (PS) and 1% bovine serum albumin (BSA). The hippocampi were treated for 20 min at 37° C. with a trypsin-EDTA solution at a final concentration of 0.05% trypsin and 0.02% EDTA.

phospho Tau (AT100) = assay: Phosphorylation of Tau (AT100) in MAP-2 neurons injured with Aβ 1-42; type: cell-based, rat; details: for AT100: Aβ1-42 20 μM/2.5 μM, percentage of control, Example 3
Experimental: as §1
(§5) The hippocampal neurons were exposed with Aβ solutions (see below) after 17 days of culture. The Aβ1-42 preparation was done following the procedure described by Callizot et al. (2013) J. Neurosci. Res. 91706-716. Briefly, Aβ1-42 peptide was dissolved in the defined culture medium mentioned above, at an initial concentration of 40 μM. This solution was gently agitated for 3 days at 37° C. in the dark and immediately used after being properly diluted in culture medium to the concentrations used (20 μM (plate 1) or 2.5 μM (plate 2) corresponding to 2 μM or 0.25 μM of oligomers (AβO) respectively).
(§6) Donecopride fumarate was solved in culture medium and preincubated 1 h before Aβ application. Aβ1-42 preparation was added to a final concentration of 20 or 2.5 μM (=2 μM or 0.25 μM of AβO, evaluated by automatic Western Blot) diluted in control medium in presence of Donecopride.
(§7) Donecopride fumarate (Donecopride) was tested on one culture in a 96 well plate (6 wells per conditions). The compound was preincubated one hour before […] application. The following conditions were assessed:
as §2
b) mouse monoclonal antibody anti-phospho Tau (AT100) at dilution of 1/400 in PBS containing 1% fetal calf serum and 0.1% of saponin.
as §3
area of tau in neurons (μm^2, overlapping with MAP-2 positive neurons).
as §4, with “EDTA. The dissociation was stopped by addition of Dulbecco's modified Eagle's medium (DMEM) with 4.5 g/l of glucose, containing DNAse I grade II (final concentration 0.5 mg/ml) and 10% fetal calf serum (FCS). Cells were mechanically dissociated by three forced passages through the tip of a 10-ml pipette.” for “EDTA.”

[2] = test system: rat primary hippocampal neurons injured with Aβ 1-42; assay: Number of synapses (PSD95/SYN overlap) in primary culture of hippocampal neurons injured with Aβ 1-42; type: cell-based; details: for Synapses: Aβ1-42 20 μM/2.5 μM, percentage of control, Example 3
Experimental: as §1, §5, §6, §7, §2
a) mouse monoclonal antibody anti post synaptic density 95 kDa (PSD95) at a dilution of 1/100 in PBS containing 1% fetal calf serum and 0.1% of saponin.
b) Rabbit polyclonal antibody anti-synaptophysin (SYN) at the dilution of 1/100 in PBS containing 1% fetal calf serum and 0.1% of saponin.
For each condition, 40 pictures per well were taken using ImageXpress (Molecular Devices) with 40× magnification. All images were taken with the same acquisition parameters.
Synapses evaluation was performed automatically by using Custom module editor (Molecular Devices).
Total number of synapses (overlapping between PSD95/SYN).
To assess the formation of synapses, the distribution of PSD-95, a post-synaptic marker, and synaptophysin, a pre-synaptic marker, was studied. A structure positive for both PSD-95 and synaptophysin staining was considered as a synapse.
Rat hippocampal neurons were cultured as described by Callizot et al. (2013) J. Neurosci. Res. 91:706-716.

[3] = Aβ 1-42 injured hippocampal neurons, Example 3 step 1

## COc1cc2c(cc1OC)C(=O)C(CC1CCN(Cc3ccccc3)CC1)C2 (stereo not drawn) [Donepezil]
[1]; Aβ 1-42 injured hippocampal neurons, any parameter of Table 7
  Lowest active dose in this model: 1 nM
[1]; donepezil 100 pM
  Survival: 69%
[1]; donepezil 1 nM
  Survival: 75%*
[1]; donepezil 10 nM
  Survival: 86%*
[1]; donepezil 50 nM
  Survival: 91%*
[1]; donepezil 100 nM
  Survival: 90%*
[1]; donepezil 500 nM
  Survival: 86%*
[1]; donepezil 1 μM
  Survival: 85%*
[1]; donepezil 10 μM
  Survival: 85%*
Phospho Tau (AT100); donepezil 100 pM
  AT100: 181%
Phospho Tau (AT100); donepezil 1 nM
  AT100: 165%*
Phospho Tau (AT100); donepezil 1 nM, listed as donepezil
  AT100: 165%
Phospho Tau (AT100); donepezil 10 nM
  AT100: 146%*
Phospho Tau (AT100); donepezil 50 nM
  AT100: 139%*
Phospho Tau (AT100); donepezil 100 nM
  AT100: 140%*
Phospho Tau (AT100); donepezil 500 nM
  AT100: 142%*
Phospho Tau (AT100); donepezil 1 μM
  AT100: 141%*
Phospho Tau (AT100); donepezil 10 μM
  AT100: 143%*
[2]; Donepezil 1 μM, Aβ 1-42 injured hippocampal neurons, Example 1
  Number of synapses normalized by the number of neurons (formation of new synapses): had no effect
[2]; donepezil 100 pM
  Synapses: 68%
[2]; donepezil 1 nM
  Synapses: 72%
[2]; donepezil 10 nM
  Synapses: 81%*
[2]; donepezil 50 nM
  Synapses: 84%*
[2]; donepezil 100 nM
  Synapses: 87%*
[2]; donepezil 500 nM
  Synapses: 90%*
[2]; donepezil 1 μM
  Synapses: 91%*
[2]; donepezil 10 μM
  Synapses: 93%*

## CCCCN1CCC(CCC(=O)c2cc(Cl)c(N)cc2OC)CC1 [RS67333, 1-(4-amino-5-chloro-2-methoxy-phenyl)-3-(1-butyl-4-piperidinyl)-1-propanone]
[1]; [3]
  Lowest protective active dose: neuronal survival: 50 nM
Phospho Tau (AT100); [3]
  Lowest protective active dose: hyperphosphorylation of Tau: 1 nM
[2]; [3]
  Lowest protective active dose: synapse: 1 µM
